{"source": "PubChem BioAssay AID1259407", "about": "(Chemical Carcinogenesis Research Information System (CCRIS), 2018)", "tested_on": "CCRIS mutagenicity, Ames/micronucleus/aberration tests", "experiment": "CCRIS mutagenicity studies", "key": {"[1]": {"details": "Test System: AMES SALMONELLA TYPHIMURIUM, Strain/Indicator: TA100, Metabolic Activation: NONE, Method: PREINCUBATION"}, "[2]": {"details": "Test System: AMES SALMONELLA TYPHIMURIUM, Strain/Indicator: TA1535, Metabolic Activation: NONE, Method: PREINCUBATION"}, "[3]": {"details": "Test System: AMES SALMONELLA TYPHIMURIUM, Strain/Indicator: TA98, Metabolic Activation: NONE, Method: STANDARD PLATE"}, "[4]": {"details": "Test System: AMES SALMONELLA TYPHIMURIUM, Strain/Indicator: TA97, Metabolic Activation: NONE, Method: PREINCUBATION"}, "[5]": {"details": "Test System: AMES SALMONELLA TYPHIMURIUM, Strain/Indicator: TA98, Metabolic Activation: NONE, Method: PREINCUBATION"}}, "note": "The source made the active and inactive calls. How the calls were made is not given here."}
{"smiles": "CCCCBr", "values": [{"measurement": "mutagenic call", "setting": "End Point: In vitro micronucleus, Test System: Chinese Hamster Ovary (CHO-WBL) cells, Metabolic Activation: None", "result": "inactive; negative"}, {"measurement": "mutagenic call", "setting": "Test System: AMES SALMONELLA TYPHIMURIUM, Strain/Indicator: TA100, Metabolic Activation: NONE, Method: DESICCATOR", "result": "active; positive"}, {"measurement": "mutagenic call", "setting": "Test System: AMES SALMONELLA TYPHIMURIUM, Strain/Indicator: TA100, Metabolic Activation: RAT, LIVER, S-9, AROCLOR 1254, Method: DESICCATOR", "result": "active; positive"}, {"measurement": "mutagenic call", "setting": "Test System: AMES SALMONELLA TYPHIMURIUM, Strain/Indicator: TA1535, Metabolic Activation: NONE, Method: DESICCATOR", "result": "active; positive"}, {"measurement": "mutagenic call", "setting": "Test System: AMES SALMONELLA TYPHIMURIUM, Strain/Indicator: TA1535, Metabolic Activation: RAT, LIVER, S-9, AROCLOR 1254, Method: DESICCATOR", "result": "active; positive"}]}
{"smiles": "CCOc1ccc(N)cc1N", "values": [{"measurement": "mutagenic call", "setting": "Test System: AMES SALMONELLA TYPHIMURIUM, Strain/Indicator: TA97, Metabolic Activation: RAT, LIVER, S-9, AROCLOR 1254 (4 OR 10%), Method: STANDARD PLATE", "result": "active; positive"}, {"measurement": "mutagenic call", "setting": "Test System: AMES SALMONELLA TYPHIMURIUM, Strain/Indicator: TA1537, Metabolic Activation: RAT, LIVER, S-9, AROCLOR 1254 (4 OR 10%), Method: STANDARD PLATE", "result": "active; positive"}, {"measurement": "mutagenic call", "setting": "Test System: AMES SALMONELLA TYPHIMURIUM, Strain/Indicator: TA1538, Metabolic Activation: RAT, LIVER, S-9, AROCLOR 1254 (4 OR 10%), Method: STANDARD PLATE", "result": "active; positive"}]}
{"smiles": "Cc1ccc(OCC2CO2)cc1", "note": "(configuration not stated)", "values": [{"measurement": "mutagenic call", "setting": "[1]", "result": "active; positive"}, {"measurement": "mutagenic call", "setting": "Test System: AMES SALMONELLA TYPHIMURIUM, Strain/Indicator: TA100, Metabolic Activation: RAT, LIVER, S-9, AROCLOR 1254 (10%), Method: PREINCUBATION", "result": "active; positive"}, {"measurement": "mutagenic call", "setting": "Test System: AMES SALMONELLA TYPHIMURIUM, Strain/Indicator: TA1535, Metabolic Activation: HAMSTER, LIVER, S-9, AROCLOR 1254 (10%), Method: PREINCUBATION", "result": "active; positive"}, {"measurement": "mutagenic call", "setting": "[2]", "result": "active; positive"}, {"measurement": "mutagenic call", "setting": "Test System: AMES SALMONELLA TYPHIMURIUM, Strain/Indicator: TA1535, Metabolic Activation: RAT, LIVER, S-9, AROCLOR 1254 (10%), Method: PREINCUBATION", "result": "active; positive"}]}
{"smiles": "Cc1ccc2cc3c(c4c2c1CC4)C1NC1c1ccccc1-3", "note": "(configuration not stated)", "values": [{"measurement": "mutagenic call", "setting": "[3]", "result": "active; positive"}, {"measurement": "mutagenic call", "setting": "Test System: AMES SALMONELLA TYPHIMURIUM, Strain/Indicator: TA100, Metabolic Activation: NONE, Method: STANDARD PLATE", "result": "active; positive"}]}
{"smiles": "Cn1c(N=[N+]=[N-])nc2ccccc21", "values": [{"measurement": "mutagenic call", "setting": "[3]", "result": "active; positive"}]}
{"smiles": "Nc1ccc2c(c1)Cc1cc([N+](=O)[O-])ccc1-2", "values": [{"measurement": "mutagenic call", "setting": "Test System: AMES SALMONELLA TYPHIMURIUM, Strain/Indicator: TA98, Metabolic Activation: HAMSTER, LIVER, S-9, 3-METHYLCHOLANTHRENE, Method: STANDARD PLATE", "result": "active; positive"}, {"measurement": "mutagenic call", "setting": "Test System: AMES SALMONELLA TYPHIMURIUM, Strain/Indicator: TA98, Metabolic Activation: HAMSTER, LIVER, S-9, Method: STANDARD PLATE", "result": "active; positive"}]}
{"smiles": "CCc1ccccc1", "values": [{"measurement": "mutagenic call", "setting": "Test System: AMES SALMONELLA TYPHIMURIUM, Strain/Indicator: TA97, Metabolic Activation: HAMSTER, LIVER, S-9, AROCLOR 1254, Method: PREINCUBATION", "result": "inactive; negative"}, {"measurement": "mutagenic call", "setting": "[4]", "result": "inactive; negative"}, {"measurement": "mutagenic call", "setting": "Test System: AMES SALMONELLA TYPHIMURIUM, Strain/Indicator: TA97, Metabolic Activation: RAT, LIVER, S-9, AROCLOR 1254, Method: PREINCUBATION", "result": "inactive; negative"}, {"measurement": "mutagenic call", "setting": "Test System: AMES SALMONELLA TYPHIMURIUM, Strain/Indicator: TA98, Metabolic Activation: HAMSTER LIVER S-9, AROCLOR 1254 (10 OR 30%), Method: PREINCUBATION", "result": "inactive; negative"}, {"measurement": "mutagenic call", "setting": "Test System: AMES SALMONELLA TYPHIMURIUM, Strain/Indicator: TA98, Metabolic Activation: HAMSTER, LIVER, S-9, AROCLOR 1254, Method: PREINCUBATION", "result": "inactive; negative"}, {"measurement": "mutagenic call", "setting": "[5]", "result": "inactive; negative"}, {"measurement": "mutagenic call", "setting": "Test System: AMES SALMONELLA TYPHIMURIUM, Strain/Indicator: TA98, Metabolic Activation: RAT LIVER S-9, AROCLOR 1254 (10 OR 30%), Method: PREINCUBATION", "result": "inactive; negative"}, {"measurement": "mutagenic call", "setting": "Test System: AMES SALMONELLA TYPHIMURIUM, Strain/Indicator: TA98, Metabolic Activation: RAT, LIVER, S-9, AROCLOR 1254, Method: PREINCUBATION", "result": "inactive; negative"}, {"measurement": "mutagenic call", "setting": "Test System: AMES SALMONELLA TYPHIMURIUM, Strain/Indicator: TA100, Metabolic Activation: HAMSTER LIVER S-9, AROCLOR 1254 (10 OR 30%), Method: PREINCUBATION", "result": "inactive; negative"}, {"measurement": "mutagenic call", "setting": "Test System: AMES SALMONELLA TYPHIMURIUM, Strain/Indicator: TA100, Metabolic Activation: HAMSTER, LIVER, S-9, AROCLOR 1254, Method: PREINCUBATION", "result": "inactive; negative"}, {"measurement": "mutagenic call", "setting": "[1]", "result": "inactive; negative"}, {"measurement": "mutagenic call", "setting": "Test System: AMES SALMONELLA TYPHIMURIUM, Strain/Indicator: TA100, Metabolic Activation: RAT LIVER S-9, AROCLOR 1254 (10 OR 30%), Method: PREINCUBATION", "result": "inactive; negative"}, {"measurement": "mutagenic call", "setting": "Test System: AMES SALMONELLA TYPHIMURIUM, Strain/Indicator: TA100, Metabolic Activation: RAT, LIVER, S-9, AROCLOR 1254, Method: PREINCUBATION", "result": "inactive; negative"}, {"measurement": "mutagenic call", "setting": "Test System: AMES SALMONELLA TYPHIMURIUM, Strain/Indicator: TA1535, Metabolic Activation: HAMSTER LIVER S-9, AROCLOR 1254 (10 OR 30%), Method: PREINCUBATION", "result": "inactive; negative"}, {"measurement": "mutagenic call", "setting": "Test System: AMES SALMONELLA TYPHIMURIUM, Strain/Indicator: TA1535, Metabolic Activation: HAMSTER, LIVER, S-9, AROCLOR 1254, Method: PREINCUBATION", "result": "inactive; negative"}, {"measurement": "mutagenic call", "setting": "[2]", "result": "inactive; negative"}, {"measurement": "mutagenic call", "setting": "Test System: AMES SALMONELLA TYPHIMURIUM, Strain/Indicator: TA1535, Metabolic Activation: RAT LIVER S-9, AROCLOR 1254 (10 OR 30%), Method: PREINCUBATION", "result": "inactive; negative"}, {"measurement": "mutagenic call", "setting": "Test System: AMES SALMONELLA TYPHIMURIUM, Strain/Indicator: TA1535, Metabolic Activation: RAT, LIVER, S-9, AROCLOR 1254, Method: PREINCUBATION", "result": "inactive; negative"}, {"measurement": "mutagenic call", "setting": "Test System: AMES SALMONELLA TYPHIMURIUM, Strain/Indicator: TA1537, Metabolic Activation: HAMSTER LIVER S-9, AROCLOR 1254 (10 OR 30%), Method: PREINCUBATION", "result": "inactive; negative"}, {"measurement": "mutagenic call", "setting": "Test System: AMES SALMONELLA TYPHIMURIUM, Strain/Indicator: TA1537, Metabolic Activation: NONE, Method: PREINCUBATION", "result": "inactive; negative"}, {"measurement": "mutagenic call", "setting": "Test System: AMES SALMONELLA TYPHIMURIUM, Strain/Indicator: TA1537, Metabolic Activation: RAT LIVER S-9, AROCLOR 1254 (10 OR 30%), Method: PREINCUBATION", "result": "inactive; negative"}, {"measurement": "mutagenic call", "setting": "Test System: MOUSE LYMPHOMA, Strain/Indicator: L5178Y (TK+/TK-), Metabolic Activation: NONE, Method: SUSPENSION/PLATE", "result": "active; positive"}]}
{"smiles": "N#CCCC#N", "values": [{"measurement": "mutagenic call", "setting": "Test System: AMES SALMONELLA TYPHIMURIUM, Strain/Indicator: TA97, Metabolic Activation: HAMSTER, LIVER, S-9, AROCLOR 1254 (10 OR 30%), Method: PREINCUBATION", "result": "inactive; negative"}, {"measurement": "mutagenic call", "setting": "[4]", "result": "inactive; negative"}, {"measurement": "mutagenic call", "setting": "Test System: AMES SALMONELLA TYPHIMURIUM, Strain/Indicator: TA97, Metabolic Activation: RAT, LIVER, S-9, AROCLOR 1254 (10 OR 30%), Method: PREINCUBATION", "result": "inactive; negative"}, {"measurement": "mutagenic call", "setting": "Test System: AMES SALMONELLA TYPHIMURIUM, Strain/Indicator: TA98, Metabolic Activation: HAMSTER, LIVER, S-9, AROCLOR 1254 (10 OR 30%), Method: PREINCUBATION", "result": "inactive; negative"}, {"measurement": "mutagenic call", "setting": "[5]", "result": "inactive; negative"}, {"measurement": "mutagenic call", "setting": "Test System: AMES SALMONELLA TYPHIMURIUM, Strain/Indicator: TA98, Metabolic Activation: RAT, LIVER, S-9, AROCLOR 1254 (10 OR 30%), Method: PREINCUBATION", "result": "inactive; negative"}, {"measurement": "mutagenic call", "setting": "Test System: AMES SALMONELLA TYPHIMURIUM, Strain/Indicator: TA100, Metabolic Activation: HAMSTER, LIVER, S-9, AROCLOR 1254 (10 OR 30%), Method: PREINCUBATION", "result": "inactive; negative"}, {"measurement": "mutagenic call", "setting": "[1]", "result": "inactive; negative"}, {"measurement": "mutagenic call", "setting": "Test System: AMES SALMONELLA TYPHIMURIUM, Strain/Indicator: TA100, Metabolic Activation: RAT, LIVER, S-9, AROCLOR 1254 (10 OR 30%), Method: PREINCUBATION", "result": "inactive; negative"}, {"measurement": "mutagenic call", "setting": "Test System: AMES SALMONELLA TYPHIMURIUM, Strain/Indicator: TA1535, Metabolic Activation: HAMSTER, LIVER, S-9, AROCLOR 1254 (10 OR 30%), Method: PREINCUBATION", "result": "inactive; negative"}, {"measurement": "mutagenic call", "setting": "[2]", "result": "inactive; negative"}, {"measurement": "mutagenic call", "setting": "Test System: AMES SALMONELLA TYPHIMURIUM, Strain/Indicator: TA1535, Metabolic Activation: RAT, LIVER, S-9, AROCLOR 1254 (10 OR 30%), Method: PREINCUBATION", "result": "inactive; negative"}]}
